Measured values reported in US10561704B2, “Compositions and methods for treating neuropsychiatric disorders using an endothelin-B receptor agonist” (MIDWESTERN UNIVERSITY, priority 2013, dated 2020).
*1 amine or outer side, *2 acyl side, *3 side chain or, on linkers, in order; H or OH if unused. Where no end group is shown, it is not given here. Suc = O=C(CCC(=O)[*:2])[*:1]

Assays:
[1] = system: middle cerebral artery occluded rats; conditions: acute study, 24 hours (Leonard et al., 2011); cited from earlier work
postnatal rat brain [2] = assay: Immunoblotting of VEGF, NGF and ETB receptors in the postnatal rat brain after IRL-1620; format: in vivo, Sprague-Dawley rats
Source text: (§1) After 21 days of gestation, 70 male and 65 female pups were born to 10 pregnant female rats. 30 male pups were randomly selected for Study I, and divided into 4 groups as follows: Group 1=male pups euthanized on postnatal day 1 (N=10); Group 2=male pups euthanized on postnatal day 7 (N=10); Group 3=male pups euthanized on postnatal day 14 (N=5); Group 4=male pups euthanized on postnatal day 28 (N=5). An additional 20 male pups were randomly selected for Study II, and divided into 2 groups: Control (N=10) and IRL-1620-treated (N=10). Pups in Study II received 3 doses of either isotonic saline (1 ml/kg) or ETB receptor agonist IRL-1620 (5 μg/kg; American Peptide Co, Inc., Sunnyvale, Calif.) on postnatal day 21. The doses were given intravenously at 2 hour intervals. All pups were weighed and evaluated for developmental and behavioral characteristics at postnatal day 1, 7, 14 and 28. Developmental and behavioral characteristics included active vs. sluggish behavior, healthy vs. shedding fur, licking, grooming, aggressive behavior, defecation, urination and wet dog shakes.
Protein levels of VEGF, NGF and ETB receptors in the postnatal rat brain of animals in Study II were estimated using immunoblotting technique. Animals were decapitated and the brains were removed on postnatal day 28, which is 7 days post administration of either saline or ETB receptor agonist, IRL-1620. The tissue was homogenized in 10× (w/v) RIPA lysis buffer, and protein concentration was determined according to the Lowry method, using bovine serum albumin as standard (Lowry et al., 1951). Protein (60 μg) was denatured in Laemmli sample buffer and resolved in 10% SDS-PAGE, and then transferred onto nitrocellulose membrane. […] Protein expression was analyzed using Image J (NIH) software.

postnatal rat brain [3] = assay: Immunofluorescent labeling of ETB receptors, VEGF and NGF in the postnatal rat brain after IRL-1620; format: in vivo, Sprague-Dawley rats; conditions: IRL-1620 on postnatal day 21, brain at day 28, vs control
Procedure: Timed pregnant female Sprague-Dawley rats (Harlan, Indianapolis, Ind.) were caged singly in a room controlled for ambient temperature (23±1° C.), humidity (50±10%) and a 12 h light/dark cycle (6:00 am-6:00 pm). Food and water were available ad libitum. All animal care and use for procedures were approved by the Institutional Animal Care and Use Committee (IACUC) of Midwestern University. In order to avoid variation due to hormonal changes, male pups only were separated and utilized for this study. The pups were euthanized via decapitation on postnatal day 1, 7, 14 and 28. The brains were aseptically removed and processed for either immunofluorescent labeling or immunoblot analysis of ETB receptors, VEGF and NGF.
as §1
Immunofluorescently labeled antibodies were used to determine the expression of ETB receptors, VEGF and NGF in the developing rat brain. Male rat pups were euthanized via decapitation, and the brains were removed at postnatal day 1, 7, 14 and 28. The brains were washed in isotonic saline and transferred to a 4% paraformaldehyde (PFA)/NaPO4 buffer solution for 2 hours to fix the tissue, followed by suspension in a 20% sucrose/4% PFA solution for 48 hours at 4° C. Brains were then sliced into 20 μm thick coronal sections at −30° C. using a cryostat (Microtome cryostat HM 505 E; Walldorf, Germany). Sections were processed for immunofluorescent staining as described by Loo, et al. (Loo et al., 2002), with minor modifications. […] Fluorescence was detected using an inverted fluorescent microscope (Nikon Eclipse TiE, Melville, N.Y.). […]

[4] = IRL-1620 on postnatal day 21, brain at day 28, vs control

For “Suc-Asp-Glu-Glu-Ala-Val-Tyr-Phe-Ala-His-Leu-Asp-Ile-Ile-Trp (Suc-DEEAVYFAHLDIIW) [IRL-1620]”, the “Reduction of infarct volume” value [1] is listed as 83.66%, the “Protein expression of ETB receptors (immunoblotting)” value (postnatal rat brain [2]; IRL-1620 5 μg/kg IV x3 on postnatal day 21, brain at day 28, vs control) is listed as “increased” and the “Overall VEGF expression (immunoblotting)” value (postnatal rat brain [2]; [4]) is listed as “significantly enhanced”. The “Overall expression of NGF (immunoblotting)” value (postnatal rat brain [2]; [4]) was “comparable”, the “Intensity of ETB receptor staining in cerebral vasculature and cortex” value (postnatal rat brain [3]) was “significantly higher” and the “Intensity of NGF staining and number of NGF-positive cells, cortex or subventricular zones” value (postnatal rat brain [3]) was “did not alter”. The “Intensity of VEGF staining” value (postnatal rat brain [3]) was “further increase” and the “Number of VEGF-positive vessels” value (postnatal rat brain [3]) was “further increase”.
